Read-outs that look alike come from different tables or passages of the source.
Tests used:
[1] = system: α-SMA; assay: Fibrosis inhibition evaluation 2, palmitic acid-induced HepG2, real-time PCR, α-SMA; conditions: palmitic acid-induced HepG2 (Table 8)
[2] = system: acute myeloid leukemia cell line U937; assay: Cancer cell proliferation inhibitory activity evaluation 2 (CCK-8), U937; type: cell-based; conditions: Homo sapiens, read-out: Cancer cell proliferation inhibitory activity U937
[3] = system: TGF-β1; assay: Fibrosis inhibition evaluation 2, palmitic acid-induced HepG2, real-time PCR, TGF-β1
[4] = system: human lung cancer cell line A549; assay: Cancer cell proliferation inhibitory activity evaluation 2 (CCK-8), A549; type: cell-based
[5] = system: Fibronectin-1; assay: Fibrosis inhibition evaluation 2, palmitic acid-induced HepG2, real-time PCR, Fibronectin-1
[6] = molecular target: MLK1 (Homo sapiens (Human), UniProt P80192); assay: Evaluation of inhibitory activity of enzyme units, MLK1 ([γ-33P]-ATP filter assay); type: biochemical
[7] = molecular target: LRRK2 mutant (G2019S) (Homo sapiens (Human), UniProt Q5S007, G2019S); assay: Evaluation of inhibitory activity against LRRK2 (affinity bead competition binding), G2019S mutant; conditions: read-out: Residual active values (%) LRRK2(G2019S); for remaining binding at 0.1 µM: 100 nM; for remaining binding at 0.5 µM: 500 nM
In short: (§1)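 Competition binding against immobilized biotinylated ligand for DNA-tagged wild-type or G2019S LRRK2, produced from T7 phage-infected E. coli (MOI 0.4, 32° C.) lysate then HEK293 cells. Beads blocked and washed in SeaBlock buffer (1% BSA, 0.05% Tween 20, 1 mM DTT); compounds prepared as 40× stocks in 100% DMSO.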

[8] = system: gastric cancer cell line Hs746T; assay: Cancer cell proliferation inhibitory activity evaluation 2 (CCK-8), Hs746T; type: cell-based; conditions: Homo sapiens
[9] = system: acute lymphoblastic leukemia cell line Jurkat; assay: Cancer cell proliferation inhibitory activity evaluation 2 (CCK-8), Jurkat; type: cell-based; conditions: Homo sapiens
[10] = molecular target: LRRK2 wild-type (Homo sapiens (Human), UniProt Q5S007); assay: Evaluation of inhibitory activity against LRRK2 (affinity bead competition binding), wild-type; conditions: read-out: Residual active values (%) LRRK2; for remaining binding at 0.1 µM: 100 nM; for remaining binding at 0.5 µM: 500 nM
In short: as §1

[11] = molecular target: MLK3 (Homo sapiens (Human), UniProt Q16584); assay: Evaluation of inhibitory activity of enzyme units, MLK3 ([γ-33P]-ATP filter assay); conditions: read-out: IC50(nM) MLK3
[12] = system: gastric cancer cell line AGS; assay: Cancer cell proliferation inhibitory activity evaluation 2 (CCK-8), AGS; type: cell-based; conditions: Homo sapiens, read-out: Cancer cell proliferation inhibitory activity AGS
[13] = U-937, 10 μM, 72 hours, CCK-8 (Table 3)
[14] = A549, 10 μM, 72 hours, CCK-8, read-out: Cancer cell proliferation inhibitory activity A549
[15] = 10 μM, 72 hours, CCK-8, read-out: Cancer cell proliferation inhibitory activity Hs746T
[16] = 10 μM, 72 hours, CCK-8, read-out: Cancer cell proliferation inhibitory activity Jurkat

Sequence of MLK1 (P80192 whole entry, looked up): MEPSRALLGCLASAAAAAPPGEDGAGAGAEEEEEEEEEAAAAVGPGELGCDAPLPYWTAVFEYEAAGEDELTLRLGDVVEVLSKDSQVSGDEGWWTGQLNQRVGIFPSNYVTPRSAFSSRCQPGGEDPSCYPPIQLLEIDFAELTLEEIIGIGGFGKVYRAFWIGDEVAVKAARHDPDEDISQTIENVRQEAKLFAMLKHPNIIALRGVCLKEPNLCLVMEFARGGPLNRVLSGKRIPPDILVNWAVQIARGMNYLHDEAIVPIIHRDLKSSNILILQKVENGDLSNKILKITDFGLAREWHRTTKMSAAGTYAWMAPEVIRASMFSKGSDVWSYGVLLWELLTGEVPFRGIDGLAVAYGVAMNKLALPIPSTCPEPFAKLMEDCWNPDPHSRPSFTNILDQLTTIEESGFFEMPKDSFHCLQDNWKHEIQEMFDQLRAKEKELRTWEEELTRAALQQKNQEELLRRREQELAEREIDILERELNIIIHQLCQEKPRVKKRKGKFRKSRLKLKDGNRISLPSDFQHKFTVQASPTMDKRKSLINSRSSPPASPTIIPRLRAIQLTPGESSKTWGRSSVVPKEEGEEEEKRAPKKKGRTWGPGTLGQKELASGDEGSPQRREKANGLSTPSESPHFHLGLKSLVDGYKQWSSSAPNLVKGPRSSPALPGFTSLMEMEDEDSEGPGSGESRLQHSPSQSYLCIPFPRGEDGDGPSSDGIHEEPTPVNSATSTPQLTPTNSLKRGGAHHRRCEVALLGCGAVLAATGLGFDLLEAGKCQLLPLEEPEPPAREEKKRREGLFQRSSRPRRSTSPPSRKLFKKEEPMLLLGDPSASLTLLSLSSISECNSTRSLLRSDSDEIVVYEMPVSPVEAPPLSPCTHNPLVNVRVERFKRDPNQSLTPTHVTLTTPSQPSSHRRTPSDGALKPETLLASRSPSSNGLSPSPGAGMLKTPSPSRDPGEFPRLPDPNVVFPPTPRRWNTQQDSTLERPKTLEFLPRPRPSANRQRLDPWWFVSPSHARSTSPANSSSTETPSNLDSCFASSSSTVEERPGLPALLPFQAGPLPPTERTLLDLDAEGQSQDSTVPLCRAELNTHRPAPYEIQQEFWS
Sequence of LRRK2 wild-type (Q5S007 whole entry, looked up): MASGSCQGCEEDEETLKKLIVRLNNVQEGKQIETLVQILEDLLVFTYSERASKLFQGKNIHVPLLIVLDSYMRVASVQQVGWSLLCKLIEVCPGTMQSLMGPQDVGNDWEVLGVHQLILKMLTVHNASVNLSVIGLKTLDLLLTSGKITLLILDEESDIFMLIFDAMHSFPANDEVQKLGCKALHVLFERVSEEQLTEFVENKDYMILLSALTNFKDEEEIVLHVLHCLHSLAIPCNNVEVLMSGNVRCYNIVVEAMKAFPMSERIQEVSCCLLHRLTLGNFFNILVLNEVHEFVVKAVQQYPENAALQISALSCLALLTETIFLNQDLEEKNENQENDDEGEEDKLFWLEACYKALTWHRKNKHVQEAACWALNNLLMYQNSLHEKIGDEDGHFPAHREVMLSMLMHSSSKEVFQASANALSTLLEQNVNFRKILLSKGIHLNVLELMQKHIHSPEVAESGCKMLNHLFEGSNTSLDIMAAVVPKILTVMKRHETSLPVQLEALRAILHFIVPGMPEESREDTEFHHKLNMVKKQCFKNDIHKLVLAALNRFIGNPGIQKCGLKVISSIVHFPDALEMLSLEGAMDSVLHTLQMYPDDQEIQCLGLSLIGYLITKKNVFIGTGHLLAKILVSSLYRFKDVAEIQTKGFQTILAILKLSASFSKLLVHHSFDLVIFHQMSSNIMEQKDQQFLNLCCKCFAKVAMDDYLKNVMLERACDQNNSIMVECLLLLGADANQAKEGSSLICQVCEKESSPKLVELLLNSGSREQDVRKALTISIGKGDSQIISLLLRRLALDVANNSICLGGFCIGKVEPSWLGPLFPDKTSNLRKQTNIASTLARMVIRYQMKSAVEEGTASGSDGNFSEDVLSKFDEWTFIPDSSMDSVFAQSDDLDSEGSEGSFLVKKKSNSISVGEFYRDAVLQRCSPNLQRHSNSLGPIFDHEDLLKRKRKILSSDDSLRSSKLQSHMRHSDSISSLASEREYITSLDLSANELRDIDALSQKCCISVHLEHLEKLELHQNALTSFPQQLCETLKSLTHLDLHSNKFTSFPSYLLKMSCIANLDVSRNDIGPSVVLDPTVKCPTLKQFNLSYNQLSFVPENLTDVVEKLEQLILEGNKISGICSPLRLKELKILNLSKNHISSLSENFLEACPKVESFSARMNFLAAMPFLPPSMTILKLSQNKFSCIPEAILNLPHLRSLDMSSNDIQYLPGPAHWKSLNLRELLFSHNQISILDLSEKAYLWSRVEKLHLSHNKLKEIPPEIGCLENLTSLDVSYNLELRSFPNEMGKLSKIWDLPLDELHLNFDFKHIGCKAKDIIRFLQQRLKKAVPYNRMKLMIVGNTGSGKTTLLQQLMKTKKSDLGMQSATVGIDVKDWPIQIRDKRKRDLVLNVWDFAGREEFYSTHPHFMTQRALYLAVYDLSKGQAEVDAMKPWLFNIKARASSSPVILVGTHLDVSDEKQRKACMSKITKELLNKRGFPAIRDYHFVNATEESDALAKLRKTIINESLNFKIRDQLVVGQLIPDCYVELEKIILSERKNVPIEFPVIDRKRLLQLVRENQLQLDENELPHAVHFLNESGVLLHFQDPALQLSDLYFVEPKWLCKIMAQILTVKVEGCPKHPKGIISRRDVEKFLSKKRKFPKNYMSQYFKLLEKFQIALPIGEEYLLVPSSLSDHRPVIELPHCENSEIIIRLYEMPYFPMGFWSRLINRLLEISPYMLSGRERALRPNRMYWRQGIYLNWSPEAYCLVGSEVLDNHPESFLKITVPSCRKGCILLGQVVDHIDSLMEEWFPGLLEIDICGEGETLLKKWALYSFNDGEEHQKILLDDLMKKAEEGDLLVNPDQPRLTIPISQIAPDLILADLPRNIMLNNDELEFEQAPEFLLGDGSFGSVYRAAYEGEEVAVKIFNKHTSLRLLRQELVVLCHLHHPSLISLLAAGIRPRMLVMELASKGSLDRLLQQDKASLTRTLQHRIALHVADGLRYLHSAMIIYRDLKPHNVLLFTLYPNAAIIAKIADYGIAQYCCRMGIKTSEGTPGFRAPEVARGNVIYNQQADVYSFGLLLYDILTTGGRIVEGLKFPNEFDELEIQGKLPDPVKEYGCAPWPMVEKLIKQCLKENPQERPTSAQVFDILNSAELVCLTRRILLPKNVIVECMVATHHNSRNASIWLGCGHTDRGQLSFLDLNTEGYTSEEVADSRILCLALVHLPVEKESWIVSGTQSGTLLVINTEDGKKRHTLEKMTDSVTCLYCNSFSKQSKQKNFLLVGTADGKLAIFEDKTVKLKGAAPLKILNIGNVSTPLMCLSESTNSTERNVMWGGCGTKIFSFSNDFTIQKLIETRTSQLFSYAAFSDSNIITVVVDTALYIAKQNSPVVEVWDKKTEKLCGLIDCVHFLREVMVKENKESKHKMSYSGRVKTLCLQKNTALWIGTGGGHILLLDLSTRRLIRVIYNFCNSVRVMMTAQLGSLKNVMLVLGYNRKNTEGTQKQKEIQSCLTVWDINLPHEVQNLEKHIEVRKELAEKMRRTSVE
Sequence of LRRK2 mutant (G2019S) (Q5S007 whole entry G2019S, looked up): as the sequence (Q5S007 whole entry, looked up) above, with G2019S counted along it
Sequence of MLK3 (Q16584 whole entry, looked up): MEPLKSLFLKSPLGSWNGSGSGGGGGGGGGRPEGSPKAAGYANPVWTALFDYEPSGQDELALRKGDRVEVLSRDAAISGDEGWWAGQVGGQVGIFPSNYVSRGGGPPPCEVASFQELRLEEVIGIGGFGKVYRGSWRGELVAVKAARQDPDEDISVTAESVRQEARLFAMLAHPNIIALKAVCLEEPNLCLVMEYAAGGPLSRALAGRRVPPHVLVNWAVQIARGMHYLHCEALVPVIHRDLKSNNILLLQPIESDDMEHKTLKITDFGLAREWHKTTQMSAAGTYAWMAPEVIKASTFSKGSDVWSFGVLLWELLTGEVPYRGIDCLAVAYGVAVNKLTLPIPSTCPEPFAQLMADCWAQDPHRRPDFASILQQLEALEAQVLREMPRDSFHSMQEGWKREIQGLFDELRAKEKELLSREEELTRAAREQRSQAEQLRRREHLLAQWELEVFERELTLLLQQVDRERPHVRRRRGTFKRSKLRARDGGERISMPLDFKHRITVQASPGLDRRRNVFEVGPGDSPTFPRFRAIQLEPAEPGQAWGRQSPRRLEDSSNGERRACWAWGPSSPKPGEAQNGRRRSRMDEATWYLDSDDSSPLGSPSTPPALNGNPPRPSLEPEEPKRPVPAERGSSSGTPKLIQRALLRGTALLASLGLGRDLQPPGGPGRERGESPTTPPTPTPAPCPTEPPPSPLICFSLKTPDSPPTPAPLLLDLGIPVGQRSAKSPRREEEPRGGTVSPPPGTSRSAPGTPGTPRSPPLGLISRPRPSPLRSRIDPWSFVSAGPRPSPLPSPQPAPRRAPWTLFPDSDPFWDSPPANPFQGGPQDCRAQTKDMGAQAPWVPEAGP

Structure (SMILES)	Relative degree of expression inhibition (%) α-SMA [1] [%]	inhibition at 10 µM ([2]; U-937, 72 h) [%]	Relative degree of expression inhibition (%) TGF-β1 [3] [%]	inhibition at 10 µM ([4]; A549, 72 h, read-out: Cancer cell proliferation inhibitory activity A549) [%]	Relative degree of expression inhibition (%) Fibronectin-1 [5]	IC50 [6] [nM]	remaining binding at 0.1 µM [7] [%]	remaining binding at 0.5 µM [7] [%]	inhibition at 10 µM ([8]; 72 h, read-out: Cancer cell proliferation inhibitory activity Hs746T) [%]	inhibition at 10 µM ([9]; 72 h, read-out: Cancer cell proliferation inhibitory activity Jurkat) [%]	remaining binding at 0.1 µM [10] [%]	remaining binding at 0.5 µM [10] [%]	IC50 [11] [nM]	inhibition at 10 µM ([12]; 72 h) [%]	inhibition at 10 µM [2, 13] [%]	inhibition at 10 µM [4, 14] [%]	inhibition at 10 µM [8, 15] [%]	inhibition at 10 µM [9, 16] [%]	inhibition at 10 µM ([12]; 10 μM, 72 hours, CCK-8) [%]
CCS(=O)(=O)N1CC[C@H](Nc2c(Br)cnc3nc(-c4cc(C)n(-c5cccc(C(=O)N6CCN(C)CC6)c5C)c4C)[nH]c23)C1 [Example 81, (3-(3-(6-bromo-7-(((S)-1-(ethylsulfonyl)pyrrolidine-3-yl)amino)-1H-imidazo[4,5-b]pyridine-2-yl)-2,5-dimethyl-1H-pyrrol-1-yl)-2-methylphenyl) (4-methylpiperazine-1-yl) methanone]	61.69	> 50	44.28	10 to 50	61.05%	14	0	0.1	10 to 50	> 50	0.7	0.6	9	> 50					
Cc1ccc(C(=O)NCCN(C)C)cc1-n1c(C)cc(-c2nc3ncc(Br)c(Nc4cccc(S(N)(=O)=O)c4)c3[nH]2)c1C [Example 96, 3-(3-(6-bromo-7-((3-sulfamoylphenyl)amino)-1H-imidazo[4,5-b]pyridine-2-yl)-2,5-dimethyl-1H-pyrrol-1-yl)-N-(2-(dimethylamino)ethyl)-4-methylbenzamide]	37.83		92.86		61.67. %	145	0.8	0.6			0.4	0	137		< 10	< 10	10 to 50	< 10	< 10
Cc1ccc(C(=O)N2CCN(C)CC2)cc1-n1c(C)cc(-c2nc3ncc(Br)c(Nc4cccc(S(N)(=O)=O)c4)c3[nH]2)c1C [Example 95, 3-((6-bromo-2-(2,5-dimethyl-1-(2-methyl-5-(4-methylpiperazine-1-carbonyl)phenyl)-1H-pyrrol-3-yl)-1H-imidazo[4,5-b]pyridine-7-yl)amino)benzenesulfonamide]	67.81		45.25		65.78%	37	79	24			68	43	60		< 10	< 10	10 to 50	10 to 50	10 to 50
CCS(=O)(=O)N1CC[C@H](Nc2c(Br)cnc3[nH]c(-c4cc(C)n(-c5cccc(C(=O)O)c5)c4C)nc23)C1 [Example 58, (S)-3-(3-(6-bromo-7-((1-(ethylsulfonyl)pyrrolidine-3-yl)amino)-3H-imidazo[4,5-b]pyridine-2-yl)-2,5-dimethyl-1H-pyrrol-1-yl)benzoic acid]	66.53		48.93		69.83%		1.4	0.2			5	0.7	53		< 10	< 10	< 10	< 10	< 10
